Measurements as given in patent US20240173333A1, “Treating Alagille Syndrome (ALGS)” (priority 2022, published 2024).
In brackets after ≈: the same amount, converted by molar mass. Entries after “also recorded” stand apart in the source; their conditions may differ.

Legend:
[1] = system: patients with Alagille syndrome (ALGS); assay: Pooled ASSERT and ASSERT-EXT: serum bile acids, autotaxin, C4; assay type: in vivo, human
Protocol: (§1) In the completed 24-week ASSERT study, patients with ALGS with history of significant pruritus and elevated serum BAs were randomized 2:1 to once-daily odevixibat 120 μg/kg or placebo, respectively. Patients who completed ASSERT could enter ASSERT-EXT, an ongoing, 72-week open-label extension study in which all patients receive odevixibat 120 μg/kg/day. This pooled analysis included all odevixibat-treated patients from ASSERT and/or ASSERT-EXT and spans from patients' first dose of odevixibat to a data cut-off of Sep. 9, 2022. Assessments over up to 36 weeks of treatment included change in observer-reported scratching scores and sleep parameters, as well as levels of serum BAs, autotaxin (a proposed meditator of pruritus), and 7 alpha-hydroxy-4-cholesten-3-one (C4; a marker of bile acid synthesis). Safety evaluations included assessment of alanine aminotransferase (ALT), total bilirubin, and treatment-emergent adverse events (TEAEs).

[2] = Solubility in water; assay type: physicochemical; conditions: pH 7, 37° C.
Source text: It is desirable that the use of organic solvents in the preparation of the formulation is avoided. In some embodiments, water is used as the solvent for the preparation of the formulation. […] Because of this low solubility in water, aqueous suspensions of odevixibat can contain larger agglomerates of odevixibat, which may lead to an uneven distribution of the active pharmaceutical ingredient on the cores, i.e., the cores may contain different amounts of odevixibat, which in turn impacts dose uniformity. Accordingly, in some embodiments, the aqueous suspension of odevixibat is homogeneous. In some embodiments, a homogeneous aqueous suspension of odevixibat is sprayed onto the cores.

[3] = system: patients with Alagille syndrome (ALGS); assay: Pooled ASSERT and ASSERT-EXT: TEAEs; assay type: in vivo, human
Protocol: as §1

[4] = system: patients with Alagille syndrome (ALGS); assay: ASSERT pruritus responders: ObsRO scratching score
Source text: Treatment with concomitant medications for pruritus was permitted provided the patient was on a stable dosage for ≥4 weeks prior to enrollment that was maintained throughout the study.
Pruritus responders were defined as patients having a ≥1-point decrease in ObsRO scratching score from baseline to weeks 21-24).

[5] = system: patients with Alagille syndrome (ALGS); assay: ASSERT: safety, treatment-emergent adverse events; assay type: in vivo, human
Source text: Safety. The primary safety analysis for this study included the incidence of total treatment-emergent adverse events (AEs) and treatment-emergent adverse events (TEAEs) categorized by causality, severity, and seriousness assessments made by the investigator by comparing study drug exposure to placebo. Other safety assessments included physical examinations, concomitant medications, vital signs, laboratory tests, and liver ultrasound and elastography.

[6] = system: patients with Alagille syndrome (ALGS); assay: Pooled ASSERT and ASSERT-EXT: observer-reported scratching scores; assay type: in vivo, human; conditions: for mean scratching score: pooled
Protocol: as §1

[7] = system: patients with Alagille syndrome (ALGS); assay: ASSERT: hepatic parameters, biochemical markers and markers of bile acid synthesis; assay type: in vivo, human
Source text: […] Additional secondary efficacy endpoints were as follows: • Change from baseline in pruritus to Month 6 (Weeks 21 to 24) as measured by the Albireo PRO instrument. • Percentage of patients achieving a clinically meaningful decrease in pruritus (pruritis responders) as measured by the ObsRO/PRO instruments. • Change from baseline through Week 24 in patient reported and observer reported itching and scratching severity scores, respectively, for the morning assessment and for the evening assessment; sleep parameters as measured with the Albireo ObsRO/PRO instruments (e.g., tiredness and number of awakenings); and PedsQL subdomain scores. • Assessment of Global Symptom Relief to from baseline to Weeks 4, 12, and 24 as measured by patient, caregiver, and clinician Global Impression of Symptoms GIS (PGIS, CaGIS, CGIS) items. • Change from baseline to Week 24 in xanthomatosis as assessed by the Clinician Xanthoma Scale; serum bile acid levels; serum ALT concentration; and serum AST concentration; gamma-glutamyl transferase concentration; total bilirubin concentration. • Change from baseline in biochemical markers and measures of bile acid synthesis (autotaxin, p-C4, only in patients >10 kg); and total cholesterol concentration.
Biochemical Markers and PK Samples. Blood samples for analysis of clinical chemistry were drawn during Screening Visits 1 and 2, as well as at randomization (Study Day 1), Week 4 to 24/EOT, and Safety Follow-up visits. As outlined in Table 1, total bilirubin, AST, ALT, and gamma glutamyl transferase assessments were included as part of the routine laboratory parameters. Blood samples for autotaxin and p-C4 were drawn at randomization (Study Day 1), Week 12, and Week 24/EOT, only for children with body weight >10 kg. Blood for odevixibat PK assessment was drawn at Week 4, Week 20, and EOT (only for children with body weight >10 kg). Samples were processed and transported to a laboratory per instructions in the laboratory manual.

[8] = baseline, before treatment, n=35
[9] = baseline, before treatment, patients >10 kg
[10] = week 24, 120 μg/kg/day, patients >10 kg

SMILES: CCCCC1(CCCC)CN(c2ccccc2)c2cc(SC)c(OCC(=O)N[C@@H](C(=O)N[C@@H](CC)C(=O)O)c3ccc(O)cc3)cc2S(=O)(=O)N1 [odevixibat, 1,1-dioxo-3,3-dibutyl-5-phenyl-7-methylthio-8-(N-{(R)-α-[N-((S)-1-carboxypropyl)carbamoyl]-4-hydroxybenzyl}carbamoylmethoxy)-2,3,4,5-tetrahydro-1,2,5-benzothiadiazepine]
- mean BA level ([1]; average of weeks 20 and 24): 145 µmol/L
- mean BA level ([1]; baseline, before odevixibat): 246 µmol/L
- mean p-C4 levels following treatment ([1]; up to 36 weeks): approached normal levels
- mean BA level ([1]; week 4): 116 µmol/L
- mean BA level ([1]; week 36): 116 µmol/L
- solubility [2]: ~30 µg/mL (≈ 40.5 µM)
- TEAEs that led to study discontinuation [3]: No patient
- patients reporting drug-related diarrhea ([3]; 6 of 52): 12%
- patients reporting drug-related TEAEs ([3]; 15 of 52): 29%
- patients reporting TEAEs ([3]; 43 of 52): 83%
- Any TEAE ([3]; n=52): 43 (83) n (%)
- Drug-related TEAE: Abdominal pain ([3]; n=52): 2 (4) n (%)
- Drug-related TEAE: Abdominal pain upper ([3]; n=52): 2 (4) n (%)
- Drug-related TEAE: Diarrhea ([3]; n=52): 6 (12) n (%)
- Drug-related TEAE: Vomiting ([3]; n=52): 2 (4) n (%)
- Drug-related TEAEs ([3]; n=52): 15 (29) n (%)
- Drug-related serious TEAEs ([3]; n=52): 1 (2) n (%)
- Serious TEAEs ([3]; n=52): 6 (12) n (%)
- Severe TEAEs ([3]; n=52): 7 (14) n (%)
- tolerability ([3]; up to 36 weeks): generally well tolerated
- Scratching score, Mean (SE) Change From Baseline ([4]; baseline to weeks 21-24): −2.0 (0.1)
- Scratching score, Baseline Mean (SE) ([4]; n=28): 2.8 (0.1)
- Scratching score, Week 24 Mean (SE) ([4]; weeks 21-24, n=28): 0.9 (0.1)
- tolerability ([5]; 120 μg/kg/day over 24 weeks): generally well tolerated
- deaths or TEAEs leading to study drug discontinuation ([5]; 24 weeks): No deaths or treatment-emergent adverse events leading to study drug discontinuation; also recorded: no deaths or treatment-emergent adverse events (TEAEs) leading to discontinuation of treatment
- incidence of COVID-19 ([5]; 24 weeks): 14.3%
- incidence of GI disorders ([5]; 24 weeks): 34%
- incidence of abdominal pain (preferred terms abdominal pain and abdominal pain upper) ([5]; 24 weeks): 14%
- incidence of bronchitis ([5]; 24 weeks): 8.6%
- incidence of infections ([5]; 24 weeks): 51.4%
- incidence of liver-related events ([5]; 24 weeks): 11%
- incidence of respiratory tract infection ([5]; 24 weeks): 8.6%
- incidence of upper respiratory tract infection ([5]; 24 weeks): 8.6%
- incidence of SAEs ([5]; 24 weeks, 120 μg/kg/day): 14.3%
- incidence of drug-related TEAE diarrhea ([5]; 24 weeks, 120 μg/kg/day): 11%
- incidence of drug-related TEAEs ([5]; 24 weeks, 120 μg/kg/day): 23%
- incidence of treatment-emergent diarrhea ([5]; 24 weeks, 120 μg/kg/day): 29%
- patients with ALT and AST elevations ≥3× baseline without concurrent (within 30 days) elevations in total bilirubin ≥2× baseline ([5]; 24 weeks, n=35): 2 patients
- serious infections reported ([5]; 24 weeks, n=35): 3 patients
- patients who experienced at least one TEAE ([5]; 26 of 35, 24 weeks, 120 μg/kg/day): 74%
- liver decompensation events ([5]; during the study): no cases
- mean scratching score ([6]; baseline, before odevixibat): 2.6
- patients with a pruritus response (≥1 point reduction from baseline in scratching score) ([6]; last assessment on odevixibat, n=37/49): 76%
- mean scratching score ([6]; weeks 1-4, 120 μg/kg/day): 1.7
- mean scratching score ([6]; weeks 21-24): 1.0
- mean scratching score ([6]; weeks 33-36): 0.6
- GGT, LS mean (SE) change from baseline to week 24 ([7]; 120 μg/kg/day, n=35): 100 (44) U/L
- Serum ALT, LS mean (SE) change from baseline to week 24 ([7]; 120 μg/kg/day, n=35): 66 (14) U/L
- Serum AST, LS mean (SE) change from baseline to week 24 ([7]; 120 μg/kg/day, n=35): 54 (15) U/L
- Total bilirubin, LS mean (SE) change from baseline to week 24 ([7]; 120 μg/kg/day, n=35): 1 (3) μmol/L
- Total cholesterol, LS mean (SE) change from baseline to week 24 ([7]; 120 μg/kg/day, n=35): −1 (1) mmol/L
- Autotaxin, Mean (SD) change from baseline to week 24 ([7]; 120 μg/kg/day, patients >10 kg): −414 (439) ng/mL
- C4, Mean (SD) change from baseline to week 24 ([7]; 120 μg/kg/day, patients >10 kg): 12 (12) ng/mL
- GGT, Mean (SD) at baseline [7, 8]: 366 (211) U/L
- Serum ALT, Mean (SD) at baseline [7, 8]: 186 (83) U/L
- Serum AST, Mean (SD) at baseline [7, 8]: 170 (81) U/L
- Total bilirubin, Mean (SD) at baseline [7, 8]: 52 (43) μmol/L
- Total cholesterol, Mean (SD) at baseline [7, 8]: 8 (2) mmol/L
- Autotaxin, Mean (SD) at baseline [7, 9]: 1846 (540) ng/mL
- C4, Mean (SD) at baseline [7, 9]: 6 (6) ng/mL
- patients with post-treatment changes in Total Bilirubin (≥3×BL) concurrently with ALT (≥2×BL) (Hy's Law / drug induced liver injury cases) ([7]; post-baseline, 24 weeks): No patient
- GGT, Mean (SD) at week 24 ([7]; week 24, 120 μg/kg/day, n=35): 460 (270) U/L
- Serum ALT, Mean (SD) at week 24 ([7]; week 24, 120 μg/kg/day, n=35): 245 (121) U/L
- Serum AST, Mean (SD) at week 24 ([7]; week 24, 120 μg/kg/day, n=35): 217 (131) U/L
- Total bilirubin, Mean (SD) at week 24 ([7]; week 24, 120 μg/kg/day, n=35): 53 (42) μmol/L
- Total cholesterol, Mean (SD) at week 24 ([7]; week 24, 120 μg/kg/day, n=35): 7 (2) mmol/L
- Autotaxin, Mean (SD) at week 24 [7, 10]: 1452 (440) ng/mL
- C4, Mean (SD) at week 24 [7, 10]: 19 (13) ng/mL
